A short description of data set [1]: Solubilization test (time for complete dissolution in water). Type of data set: physicochemical. The settings on record: 250 mg ground sample in 250 ml pure water at 26 ± 2°C, stirred at 350 to 360 rpm, stirring and standing repeated every 30 seconds. How it is done: The present invention will be described in detail in the following examples, in which the solubilization test was carried out by the following procedure: Solubilization Test
Into 250 ml of pure water having a temperature of 26 ± 2°C which was being stirred (at 350 to 360 rpm by a magnetic stirrer) was poured 250 mg of a ground α-APM sample. Stirring and standing were repeated every 30 seconds. The time required for the sample to dissolve completely was measured.

Data set [2] in a line: Solubilization of conventionally recrystallized α-APM in water at room temperature. The settings on record: 250 mg crushed powder in 250 ml of water at room temperature, stirring and standing alternated every 30 seconds. It is filed as physicochemical. The text has this:
α-APM purified y conventional recrystallization methods has the disadvantage of poor solubilization (rate of solution) in water.

For data set [3] the following is noted: widely known property stated in the prior art section; cited from earlier work.

SMILES strings stand for the structures. Peptide text beside a SMILES is read from it. A value given as a limit tells only on which side of the number the result lay.

As for `COC(=O)[C@H](Cc1ccccc1)NC(=O)[C@@H](N)CC(=O)O` [Comparative Example, α-L-aspartyl-L-phenylalanien emthyl ester, reference compound] (H-Asp-Phe-OMe), the “time required for the sample to dissolve completely” value (from here on “time required for the sample”) in data set [1] is 25 min.

In the case of `COC(=O)[C@H](Cc1ccccc1)NC(=O)[C@@H](N)CC(=O)O` [Example 1, α-L-aspartyl-L-phenylalanien emthyl ester] (H-Asp-Phe-OMe), in data set [1], the “time required for the sample” value is no more than 5 min. `COC(=O)[C@H](Cc1ccccc1)NC(=O)[C@@H](N)CC(=O)O` [Example 2, α-L-aspartyl-L-phenylalanien emthyl ester] (H-Asp-Phe-OMe): the “time required for the sample” value in data set [1] was no more than 5 min. On the same count and under the same terms, then `COC(=O)[C@H](Cc1ccccc1)NC(=O)[C@@H](N)CC(=O)O` [Example 3, α-L-aspartyl-L-phenylalanien emthyl ester] (H-Asp-Phe-OMe), with no more than 5 min.

For the compound `COC(=O)[C@H](Cc1ccccc1)NC(=O)[C@@H](N)CC(=O)O` [Example 4, α-L-aspartyl-L-phenylalanien emthyl ester] (H-Asp-Phe-OMe), the “time required for the sample” value in data set [1] was no more than 5 min.

As for `COC(=O)[C@H](Cc1ccccc1)NC(=O)[C@@H](N)CC(=O)O` [Example 5, α-L-aspartyl-L-phenylalanien emthyl ester] (H-Asp-Phe-OMe), in data set [1], the “time required for the sample” value was no more than 5 min. Take `COC(=O)[C@H](Cc1ccccc1)NC(=O)[C@@H](N)CC(=O)O` [α-APM obtained conventionally by recrystallization from a 50] [α-L-aspartyl-L-phenylalanien emthyl ester] (H-Asp-Phe-OMe): the “time required to dissolve completely” value in data set [2] is given as “more than 15 minutes”. `COC(=O)[C@H](Cc1ccccc1)NC(=O)[C@@H](N)CC(=O)O` [α-APM, α-L-aspartyl-L-phenylalanien emthyl ester] (H-Asp-Phe-OMe): the degree of sweetness entry in data set [3] is given as “about 200 times the sweetness of sucrose”.

Values taken from EP0405273A2, “Method for producing readily soluble crystalline alfa-L-aspartyl-L-phenylalanine methyl ester” (MITSUI TOATSU CHEMICALS, Inc., priority 1989, dated 1991).
